In US20260241008A1, “COMPOSITION CONTAINING SELF-ASSEMBLED STRUCTURE AND FREEZE-DRIED PRODUCT THEREOF” (Resonac Corporation, priority 2023, published 2026):

Assay: Krafft point of TPNa aqueous solution
Assay type: physicochemical

- Krafft point (Kp): 16.2 °C
SMILES: Cc1c(C)c2c(c(C)c1OP(=O)([O-])[O-])CCC(C)(CCCC(C)CCCC(C)CCCC(C)C)O2.[Na+].[Na+] (racemic) [TPNa, sodium salt of the dl-α-tocopheryl phosphate]
